{"source": "patent US20250288570A1", "about": "“TREATMENT OF NEUROLOGICAL DISORDERS” (Praxis Precision Medicines, Inc., priority 2022, published 2025)", "key": {"[1]": {"test_system": "multiple NaV isoforms and orthologs", "experiment": "ATX-II induced persistent INa of multiple NaV isoforms and orthologs", "assay_type": "cell-based"}, "human Nav1.6": {"target": "T1, human Nav1.6 (Homo sapiens, UniProt Q9UQD0)", "T1 construct": "HEK-293 cell lines stably expressing human Nav1.6 (NP_055006) were used; expressed in transfected cells", "T1 sequence (Q9UQD0 whole entry)": "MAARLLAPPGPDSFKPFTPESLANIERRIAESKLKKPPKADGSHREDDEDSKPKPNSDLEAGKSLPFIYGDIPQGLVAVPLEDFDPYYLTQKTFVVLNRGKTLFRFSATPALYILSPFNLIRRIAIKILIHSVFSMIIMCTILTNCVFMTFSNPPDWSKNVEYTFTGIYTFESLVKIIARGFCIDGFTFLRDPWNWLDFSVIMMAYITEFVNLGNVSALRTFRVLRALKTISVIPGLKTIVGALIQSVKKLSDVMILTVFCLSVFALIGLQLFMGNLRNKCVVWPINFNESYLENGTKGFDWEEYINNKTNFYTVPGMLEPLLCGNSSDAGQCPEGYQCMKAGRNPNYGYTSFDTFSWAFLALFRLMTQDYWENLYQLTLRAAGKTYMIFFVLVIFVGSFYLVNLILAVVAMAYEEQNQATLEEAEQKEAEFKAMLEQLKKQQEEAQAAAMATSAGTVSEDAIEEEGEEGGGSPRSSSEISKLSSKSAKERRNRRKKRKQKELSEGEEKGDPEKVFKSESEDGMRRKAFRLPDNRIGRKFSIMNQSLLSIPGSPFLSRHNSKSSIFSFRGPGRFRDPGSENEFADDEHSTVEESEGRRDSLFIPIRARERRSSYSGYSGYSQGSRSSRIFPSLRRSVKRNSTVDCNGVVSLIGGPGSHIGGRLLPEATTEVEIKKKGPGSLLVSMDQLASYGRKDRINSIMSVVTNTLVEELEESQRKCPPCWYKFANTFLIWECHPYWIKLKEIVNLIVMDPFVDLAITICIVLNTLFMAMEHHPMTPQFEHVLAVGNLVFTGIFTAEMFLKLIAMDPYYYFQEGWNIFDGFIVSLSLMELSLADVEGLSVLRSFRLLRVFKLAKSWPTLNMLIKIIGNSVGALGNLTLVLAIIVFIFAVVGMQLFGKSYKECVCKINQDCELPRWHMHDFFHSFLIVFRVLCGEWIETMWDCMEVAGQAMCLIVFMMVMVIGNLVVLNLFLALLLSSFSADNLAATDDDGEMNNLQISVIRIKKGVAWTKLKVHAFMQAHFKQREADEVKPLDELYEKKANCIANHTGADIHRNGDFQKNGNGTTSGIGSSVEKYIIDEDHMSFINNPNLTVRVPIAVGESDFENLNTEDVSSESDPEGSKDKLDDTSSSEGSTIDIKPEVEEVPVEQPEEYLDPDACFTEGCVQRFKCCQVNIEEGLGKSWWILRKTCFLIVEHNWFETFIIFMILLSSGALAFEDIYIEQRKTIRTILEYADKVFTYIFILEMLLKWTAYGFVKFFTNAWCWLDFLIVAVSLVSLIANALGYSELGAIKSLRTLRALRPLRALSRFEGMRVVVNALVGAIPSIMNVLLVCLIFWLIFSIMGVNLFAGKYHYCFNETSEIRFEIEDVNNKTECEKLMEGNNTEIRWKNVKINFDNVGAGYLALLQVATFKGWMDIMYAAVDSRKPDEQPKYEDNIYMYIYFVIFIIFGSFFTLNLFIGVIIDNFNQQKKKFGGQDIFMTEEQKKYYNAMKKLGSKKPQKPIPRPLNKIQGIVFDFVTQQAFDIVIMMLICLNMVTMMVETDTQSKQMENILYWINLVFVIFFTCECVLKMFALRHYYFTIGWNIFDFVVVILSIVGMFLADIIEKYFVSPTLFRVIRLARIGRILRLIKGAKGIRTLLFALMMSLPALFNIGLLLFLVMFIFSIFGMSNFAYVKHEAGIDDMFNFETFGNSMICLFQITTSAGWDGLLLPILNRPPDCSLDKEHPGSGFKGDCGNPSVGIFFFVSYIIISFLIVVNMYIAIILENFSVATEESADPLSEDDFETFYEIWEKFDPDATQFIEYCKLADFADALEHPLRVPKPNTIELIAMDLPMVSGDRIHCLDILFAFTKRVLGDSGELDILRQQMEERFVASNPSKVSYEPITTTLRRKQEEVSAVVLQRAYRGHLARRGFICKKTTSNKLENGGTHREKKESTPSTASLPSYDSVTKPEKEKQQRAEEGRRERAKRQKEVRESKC", "experiment": "ATX-II activated late (persistent) INa block, automated patch clamp in HEK cells", "assay_type": "cell-based"}}, "note": "“Also recorded” adds a separate entry of the source."}
{"smiles": "CCOC(F)(F)c1nnc2ccc(-c3cnc(OCC(F)(F)F)c(F)c3)cn12", "note": "[Compound 1]", "values": [{"measurement": "inhibition of persistent INa at other isoforms and orthologs (in words)", "setting": "[1]", "result": "inhibits ATX-II induced persistent INa expressed by multiple NaV isoforms and orthologs"}, {"measurement": "persistent INa preference to TB", "setting": "human Nav1.6", "result": 68, "unit": "×"}, {"measurement": "potency for persistent INa relative to the other tested INa blocking agents", "setting": "human Nav1.6", "result": "at least 550 ×"}, {"measurement": "inhibition of and preference for persistent INa (in words)", "setting": "human Nav1.6; hNav1.6", "result": "concentration dependent inhibition of late sodium current; also recorded: preference for persistent INa relative to peak INa for all assay conditions; also recorded: potently inhibited ATX-II-induced persistent INa; also recorded: potent inhibition of persistent INa; also recorded: potent inhibitor of persistent INa; also recorded: increased potency for persistent INa relative to standard NaV-targeting ASMs"}, {"measurement": "Persistent INa Hill slope", "setting": "human Nav1.6; hNav1.6 in HEK cells", "result": "(1.4)"}]}
